Among the data in publication PMC13503962, “Uncovering the genetic basis of fruit volatiles in Fragaria vesca through GWAS reveals FvJMT2 as a methyl benzoate biosynthesis gene with bioactivity against Drosophila suzukii” (Horticulture Research, 2026) are Km values, retold here.

Each structure is given as a SMILES string.

The experiment relates to T1, FvJMT2 (FvJMT2^C275, functional full-length allele).
T1 construct: full-length CDS (1173 nt, 390 residues) in pQE80L, N-terminal 6xHis tag, E. coli XL1-Blue, Ni-NTA purified; tag removal not mentioned
The experiment in a line: radiochemical methyl transfer from […]-SAM, hexane extraction, scintillation counting; nonlinear Michaelis-Menten fit. The format is biochemical, Fragaria vesca. Particulars: co-substrate SAM (saturating); 50 mM Tris-HCl pH 7.5, 2.5 mM MgCl2, 5 mM DTT, 2.5 mM EDTA, 30 °C; read-out: Kinetic parameters / Km /.
Turning to `O=C(O)c1ccccc1` [Benzoic acid], the Km is 577 µM. `O=C(O)/C=C/c1ccccc1` [Cinnamic acid]: the Km amounted to 597 µM. Then `CC/C=C\C[C@H]1C(=O)CC[C@@H]1CC(=O)O` [Jasmonic acid], with 174 µM. `O=C(O)c1ccccc1O` [Salicylic acid]: the Km came out at 690 µM.
